{"source": "paper PMC9515143", "about": "“Phosphorylation of Jhd2 by the Ras-cAMP-PKA(Tpk2) pathway regulates histone modifications and autophagy” (Nature Communications, 2022)", "type_in_all_cases": "cell-based, budding yeast (Saccharomyces cerevisiae)", "key": {"H3K4me3": {"tested_on": "H3K4me3", "assay": "Western blot of H3K4me3 in yeast cells treated with glucose, 2-DG, FBP or pyruvate", "settings": "WT cells, YP medium with different glucose concentrations, 0.5 hr", "source_text": "To examine the effect of glucose on histone modifications, we grew yeast cells in 2% glucose-containing medium (YPD) until log phase. Cells were collected and then grown in the medium containing different concentrations of glucose for 0.5 hr.\nPKA is activated by cyclic AMP (cAMP), which binds to its inhibitory subunit, Bcy1 and causes its dissociation (Fig. 1g). We thus examined H3K4me3 in deletion mutants of cAMP phosphodiesterases PDE1 and PDE2, which encode enzymes to hydrolyze cAMP and inactivate PKA[39],[40]. […] To test whether the Ras-cAMP-PKA pathway mediates glucose-induced H3K4me3, we examined H3K4me3 in ras1Δ and ras2Δ mutants. […] Ras1/2 can be activated by glycolysis-derived fructose-1,6-biphosphate (FBP) via Cdc25[6] (Fig. 1g).\n(§1) To examine the effect of glucose on histone modifications, yeast cells were grown in 2% glucose-containing YPD (Yeast Extract Peptone Dextrose) medium until OD600 of 0.7–1.0. Cells were then collected, washed and resuspended in YP medium for 3 hr followed by treatment with different concentrations of glucose for 0.5 hr. For 1NM-PP1 (MCE, HY-13804) treatment, cells were grown in 2% YPD until OD600 of 0.7–1.0. Cells were then treated with 25 μM 1NM-PP1 for 0.5 hr. For FBP and pyruvate treatment, cells were pre-treated with Zymolase (Mpbio, 08320921) to increase the permeability. In brief, cells were grown in YPD medium until OD600 of 0.7–1.0, centrifuged and resuspended in 1 ml SB buffer (100 mM Sorbitol, 20 mM Tris pH 7.4). 10 μl Zymolase was then added and incubated at 30 °C for 15 min. The spheroplasts were washed and cultured in YPD medium containing different concentrations of FBP and pyruvate for 3 hr.\n(§2) Cells were grown in 5 ml YPD or selective medium until OD600 of 0.7–1.0. Cells were harvested and lysed in alkaline lysis buffer (2 M NaOH, 8% 2-mercaptoethanol). After centrifugation, the protein pellet was resuspended in 150 μl 2×SDS-sample buffer. Protein samples were separated by 8–15% SDS-PAGE and transferred to PVDF membrane. The blots were probed with primary antibodies followed by incubation with horseradish peroxidase-labelled IgG secondary antibodies. The protein bands were visualized using the ECL Chemiluminescence Detection Kit (Bio-Rad, 170–5061) and quantified with Image J software (v.1.8.0)."}, "H2Bub": {"tested_on": "H2Bub", "assay": "Western blot of H2B monoubiquitination (H2Bub) after glucose", "settings": "for H2Bub/H2B: 0.5 hr", "protocol": "as §1, §2\n(§3) Supplementary Fi g . […] WT (a) and H2B-F LA G cel ls (b) wer e grown in YPD medium until OD600 of 0.7.\n(§4) Cells were th en tr eat ed with YP medium supplement ed with differen t concentrations of glucos e for 0.5 hr. C ells were h ar vested an d the ex tract ed histones w er e anal yz ed by Western blots with indicat ed ant ibodies. To d et ect H2B monoubiquitination, H2B-F LAG strain w as used and d et ect ed with anti -F LAG ant ibody. Th e upper bands ar e monoubiquitinat ed H2B-F LAG. c E ff e c t of gl ucose on histone modifications in WT and ubp8∆ ubp10∆ mutant. WT and ubp8∆ ubp10∆ mut ant w er e gro wn in YPD medium unti l OD600 of 0.7. Cells wer e th en treated with YP medium supplem ent ed with di fferent con cen tr ations of gl u cos e fo r 0.5 hr. d Gluco se has no effect on the activit y of C O M PA S S . Spp1-TA P cells wer e grown in YPD medium until OD600 of 1.5. Cells were h arv est ed and then treat ed with YP + 0.05% glucos e and YP + 4% gl u cos e for 0.5 hr. Spp1-cont aining COMPASS (Spp1-CBP ) was then p urifi ed by tand em affinit y puri fi cati on ( TA P ) . Th e in vitro hi stone meth yltransferase assa y was p er form ed wit h purifi ed C O M PA S S and in vitro assembl ed nucl eosom es. e E ff e c t of the m TO R pathwa y on H3K4 meth ylation. […]\n(§5) For Supplem ent ar y Fi g. 1b, e-g, i-k, d at a r ep res ent means ± SEM; n=3 i ndependent ex perim ents. For Supplem entar y Fi g. 1c, d ata represent means ± SEM; n=4 independent ex periments. Tw o -sided t-tests were used for statistical analysis."}, "H3R2me2a": {"tested_on": "H3R2me2a", "assay": "Western blot of H3R2me2a after glucose", "settings": "for H3R2me2a/H3: 0.5 hr", "protocol": "as §1, §2, §3, §4, §5"}, "[1]": {"settings": "0.5% glucose, relative to 0.05% glucose = 1, replicate 1"}, "[2]": {"settings": "0.5% glucose, relative to 0.05% glucose = 1, replicate 2"}, "[3]": {"settings": "0.5% glucose, relative to 0.05% glucose = 1, replicate 3"}, "[4]": {"settings": "1% glucose, relative to 0.05% glucose = 1, replicate 1"}, "[5]": {"settings": "1% glucose, relative to 0.05% glucose = 1, replicate 2"}, "[6]": {"settings": "1% glucose, relative to 0.05% glucose = 1, replicate 3"}, "[7]": {"settings": "2% glucose, relative to 0.05% glucose = 1, replicate 1"}, "[8]": {"settings": "2% glucose, relative to 0.05% glucose = 1, replicate 2"}, "[9]": {"settings": "2% glucose, relative to 0.05% glucose = 1, replicate 3"}, "[10]": {"settings": "4% glucose, relative to 0.05% glucose = 1, replicate 1"}, "[11]": {"settings": "4% glucose, relative to 0.05% glucose = 1, replicate 2"}, "[12]": {"settings": "4% glucose, relative to 0.05% glucose = 1, replicate 3"}}, "data": [{"compound": "OC[C@H]1OC(O)[C@H](O)[C@@H](O)[C@@H]1O", "note": "(stereo partly drawn) [glucose]", "values": [{"measurement": "H3K4me3 level", "setting": "H3K4me3", "value": "induced H3K4me3 in a dose-dependent manner"}, {"measurement": "H2Bub/H2B", "setting": "H2Bub; [1]", "value": 1.541}, {"measurement": "H2Bub/H2B", "setting": "H2Bub; [2]", "value": 1.389}, {"measurement": "H2Bub/H2B", "setting": "H2Bub; [3]", "value": 1.9778}, {"measurement": "H2Bub/H2B", "setting": "H2Bub; [4]", "value": 1.812}, {"measurement": "H2Bub/H2B", "setting": "H2Bub; [5]", "value": 3.264}, {"measurement": "H2Bub/H2B", "setting": "H2Bub; [6]", "value": 4.024}, {"measurement": "H2Bub/H2B", "setting": "H2Bub; [7]", "value": 2.484}, {"measurement": "H2Bub/H2B", "setting": "H2Bub; [8]", "value": 4.332}, {"measurement": "H2Bub/H2B", "setting": "H2Bub; [9]", "value": 3.575}, {"measurement": "H2Bub/H2B", "setting": "H2Bub; [10]", "value": 3.885}, {"measurement": "H2Bub/H2B", "setting": "H2Bub; [11]", "value": 5.306}, {"measurement": "H2Bub/H2B", "setting": "H2Bub; [12]", "value": 5.56}, {"measurement": "H2Bub level", "setting": "H2Bub; H2B-FLAG cells, glucose 0.5 hr, Western blot", "value": "induced H2Bub"}, {"measurement": "H3R2me2a/H3", "setting": "H3R2me2a; [1]", "value": 1.016}, {"measurement": "H3R2me2a/H3", "setting": "H3R2me2a; [2]", "value": 0.8082}, {"measurement": "H3R2me2a/H3", "setting": "H3R2me2a; [3]", "value": 1.063}, {"measurement": "H3R2me2a/H3", "setting": "H3R2me2a; [4]", "value": 1.0068}, {"measurement": "H3R2me2a/H3", "setting": "H3R2me2a; [5]", "value": 0.9832}, {"measurement": "H3R2me2a/H3", "setting": "H3R2me2a; [6]", "value": 1.068}, {"measurement": "H3R2me2a/H3", "setting": "H3R2me2a; [7]", "value": 0.9685}, {"measurement": "H3R2me2a/H3", "setting": "H3R2me2a; [8]", "value": 0.8294}, {"measurement": "H3R2me2a/H3", "setting": "H3R2me2a; [9]", "value": 0.8742}, {"measurement": "H3R2me2a/H3", "setting": "H3R2me2a; [10]", "value": 1.047}, {"measurement": "H3R2me2a/H3", "setting": "H3R2me2a; [11]", "value": 0.9174}, {"measurement": "H3R2me2a/H3", "setting": "H3R2me2a; [12]", "value": 0.9548}, {"measurement": "H3R2me2a level", "setting": "H3R2me2a; glucose 0.5 hr, Western blot", "value": "had no significant effect on H3R2me2a"}]}]}
